Where two headings read alike, the source gives them in different places. Where a SMILES comes first, the peptide text is derived from it.
Key:
rat apelin receptor-EGFP [1] = molecular target: T1, rat apelin receptor-EGFP (Rattus norvegicus, UniProt Q9JHG3); test: [125I]pE13F radioligand binding on CHO membrane preparations
T1 construct: expressed in transfected cells
T1 sequence (Q9JHG3 1-377): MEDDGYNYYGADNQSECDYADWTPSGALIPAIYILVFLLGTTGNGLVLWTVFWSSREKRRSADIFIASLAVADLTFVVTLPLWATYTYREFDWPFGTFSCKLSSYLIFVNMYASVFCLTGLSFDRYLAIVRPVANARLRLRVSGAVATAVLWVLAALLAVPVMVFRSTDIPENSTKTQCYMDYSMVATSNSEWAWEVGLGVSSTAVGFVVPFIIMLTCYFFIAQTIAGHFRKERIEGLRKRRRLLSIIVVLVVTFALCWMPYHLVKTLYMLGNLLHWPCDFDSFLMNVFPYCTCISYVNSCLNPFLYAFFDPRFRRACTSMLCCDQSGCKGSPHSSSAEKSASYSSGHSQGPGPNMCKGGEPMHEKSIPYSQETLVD
Procedure: Crude membrane preparation from CHO stably expressing the wild-type rat apelin receptor-EGFP, were prepared as previously described (39). […] The reaction was stopped by adding ice-cold binding buffer and filtered through glass microfiber filters (Whatman GF/C filters). Radioactivity was counted in Wizard 1470 Wallac gamma counter (Perkin Elmer, Turku, Finland).

rat apelin receptor-EGFP [2] = molecular target: T1, rat apelin receptor-EGFP; test: Inhibition of forskolin-induced cAMP production (HTRF); assay type: cell-based
Procedure: cAMP was quantified using the cAMP dynamic 2 assay kit (Cisbio Bioassays, Codolet, France) based on homogeneous time-resolved fluorescence (HTRF) technology. The stimulation was done in the stimulation buffer (HBSS, 5 mM Hepes, 0.1% BSA stabilizer, 1 mM IBMX, pH 7.4). Briefly, 2,000/well CHO cells stably expressing the rat apelin receptor-EGFP were added into 384-well plate and stimulated with 10^−6 M forskolin (FSK) and increasing concentrations (10^−14 to 10^−4 M) of apelins or its analogs for 30 min at room temperature. Cells were then lyzed, and cAMP levels were determined following manufacturer instructions.

rat apelin receptor-EGFP [3] = molecular target: T1, rat apelin receptor-EGFP; test: Apelin receptor-EGFP internalization, confocal microscopy; assay type: cell-based; details: 1 μM, 20 min
Procedure: The internalization assay was performed as described previously with CHO cells stably expressing the rat apelin receptor-EGFP (43). […] Cells were then mounted in Aquapolymount (Polysciences, Warrington, Pa., USA) for confocal microscopic analysis (Sec (42) for details).

in vitro = details: mouse, plasma, 4 h
Procedure: For each compound, the stock solution (100 μM in water) was diluted in plasma to a final incubation concentration of 5 μM. The incubation at 37° C. was stopped respectively at to and 4 h by adding one volume of ice cold acetonitrile containing 0.1% trifluoroacetic acid. The sample was vortexed for 1 min and then centrifuged at 4° C. before LC-MS injection of the supernatant. Analyses were performed on a Kinetex RP-C18 column (2.6 μm, 100 Å, 50×4.6 mm) using a linear gradient (solvent B in solvent A, solvent A: water/0.05% TFA; solvent B: acetonitrile; flow rate of 2 mL·min^−1: detection at 358 nm). The percentage of remaining test compound relative to t0 was measured by monitoring the peak area of the chromatogram.

[4] = system: rat aortic rings precontracted by noradrenaline (NA); test: Isometric tension of aortic rings precontracted by noradrenaline; details: precontraction 3×10^−6 M NA
Procedure: The experiments were performed in rat aortic rings as previously described (39). […] The aortas were cleaned of excess connective tissue and fat and cut into rings of approximately 3-4 mm in length. Special care was taken to avoid damaging the luminal surface of the endothelium. […] One end of the aortic ring was connected to a tissue holder and the other to an isometric force transducer (EMKA Technologies, Paris, France). […] During equilibration period, the rings were washed every 30 min. Then, a first relaxation to acetylcholine (Ach, 10^−4 mol/L) was implemented to check the integrity or the absence of the endothelium in rings precontracted with NA (3×10^−8 mol/L). After rinsing with PSS to baseline tension, rings were equilibrated for 90 min. […] Each concentration of the drug was added at the maximal effect of the precedent concentration. The concentration-response curves were continuously recorded on a PC by means of IOX v 2.4 (EMKA Technologies, Paris) for further analysis (Datanalyst v2.1, EMKA Technologies, Paris).

[5] = competition with [125I]pE13F, CHO membranes, read-out: Ki for the apelin receptor (affinity)
[6] = 10^−6 M forskolin, read-out: IC50 inhibition of forskolin-induced cAMP production
[7] = Table 3, read-out: Ki nM ± SEM (15.11.2013)
[8] = Table 3, read-out: IC50 cAMP inhibition

SMILES	Ki (rat apelin receptor-EGFP [1]; [5])	IC50 (rat apelin receptor-EGFP [2]; [6])	induction of apelin receptor internalization (rat apelin receptor-EGFP [3])	Ki (rat apelin receptor-EGFP [1]; [7])	IC50 (rat apelin receptor-EGFP [2]; [8])	other results
CSCC[C@H](NC(=O)[C@@H]1CCCN1C(=O)CNC(=O)[C@H](CCCCN)NC(=O)[C@H](Cc1c[nH]cn1)NC(=O)[C@H](CO)NC(=O)[C@H](CC(C)C)NC(=O)[C@H](CCCNC(=N)N)NC(=O)[C@@H]1CCCN1C(=O)[C@H](CCCNC(=N)N)NC(C)=O)C(=O)N1CCC[C@H]1C(=O)N[C@@H](Cc1ccccc1)C(=O)O [Ac—R12F]	1.4 ± 0.7 nM	2.4 ± 1.4 nM	potent inducers of apelin receptor internalization	–	–	–
CCCCCCCCCCCCCCCC(=O)N[C@@H](CCCCN)C(=O)N[C@@H](Cc1ccccc1)C(=O)N[C@@H](CCCNC(=N)N)C(=O)N[C@@H](CCCNC(=N)N)C(=O)N[C@@H](CCC(N)=O)C(=O)N[C@@H](CCCNC(=N)N)C(=O)N1CCC[C@H]1C(=O)N[C@@H](CCCNC(=N)N)C(=O)N[C@@H](CC(C)C)C(=O)N[C@@H](CO)C(=O)N[C@@H](Cc1c[nH]cn1)C(=O)N[C@@H](CCCCN)C(=O)NCC(=O)N1CCC[C@H]1C(=O)N[C@@H](CCSC)C(=O)N1CCC[C@H]1C(=O)N[C@@H](Cc1ccccc1)C(=O)O [JFM V-0196A]	–	–	–	–	–	Ki (rat apelin receptor-EGFP [1]; [125I]pE13F binding I (nM), Table 2): 0.76 ± 0.13 nM; IC50 (rat apelin receptor-EGFP [2]; Table 2, read-out: cAMP production IC50): 3.9 ± 1.5 nM; starting peptide remaining after 4 h (in vitro): 100% of star-ring peptide after 4 h
CSCC[C@H](NC(=O)[C@@H]1CCCN1C(=O)CNC(=O)[C@H](CCCCN)NC(=O)[C@H](Cc1c[nH]cn1)NC(=O)[C@H](CO)NC(=O)[C@H](CC(C)C)NC(=O)[C@H](CCCNC(=N)N)NC(=O)[C@@H]1CCCN1C(=O)[C@H](CCCNC(=N)N)NC(=O)[C@H](CCC(N)=O)NC(=O)[C@H](CCCNC(=N)N)NC(=O)[C@H](CCCNC(=N)N)NC(=O)[C@H](Cc1ccccc1)NC(=O)[C@H](CCCCN)NC(=O)[C@@H](N)CCCCNC(=O)CCC(F)(F)C(F)(F)C(F)(F)C(F)(F)C(F)(F)C(F)(F)C(F)(F)C(F)(F)F)C(=O)N1CCC[C@H]1C(=O)N[C@@H](Cc1ccccc1)C(=O)O [JFM V-0210/1]	–	–	–	0.18 ± 0.023 nM	3.8 ± 1 nM	–
CCCCCCCCCCCCCCCC(=O)NCCCC[C@H](N)C(=O)N[C@@H](CCCCN)C(=O)N[C@@H](Cc1ccccc1)C(=O)N[C@@H](CCCNC(=N)N)C(=O)N[C@@H](CCCNC(=N)N)C(=O)N[C@@H](CCC(N)=O)C(=O)N[C@@H](CCCNC(=N)N)C(=O)N1CCC[C@H]1C(=O)N[C@@H](CCCNC(=N)N)C(=O)N[C@@H](CC(C)C)C(=O)N[C@@H](CO)C(=O)N[C@@H](Cc1c[nH]cn1)C(=O)N[C@@H](CCCCN)C(=O)NCC(=O)N1CCC[C@H]1C(=O)N[C@@H](CCSC)C(=O)N1CCC[C@H]1C(=O)N[C@@H](Cc1ccccc1)C(=O)O [JFM V-0210/2]	–	–	–	1.33 ± 0.15 nM	1.4 ± 0.5 nM	–
CCCCCCCCCCCCCCCC(=O)NCCCC[C@H](N)C(=O)N[C@@H](Cc1ccccc1)C(=O)N[C@@H](CCCNC(=N)N)C(=O)N[C@@H](CCCNC(=N)N)C(=O)N[C@@H](CCC(N)=O)C(=O)N[C@@H](CCCNC(=N)N)C(=O)N1CCC[C@H]1C(=O)N[C@@H](CCCNC(=N)N)C(=O)N[C@@H](CC(C)C)C(=O)N[C@@H](CO)C(=O)N[C@@H](Cc1c[nH]cn1)C(=O)N[C@@H](CCCCN)C(=O)NCC(=O)N1CCC[C@H]1C(=O)N[C@@H](CCSC)C(=O)N1CCC[C@H]1C(=O)N[C@@H](Cc1ccccc1)C(=O)O [JFM V-0220A]	–	–	–	1.43 ± 0.74 nM	2 ± 0.75 nM	–
CSCC[C@H](NC(=O)[C@@H]1CCCN1C(=O)CNC(=O)[C@H](CCCCN)NC(=O)[C@H](Cc1c[nH]cn1)NC(=O)[C@H](CO)NC(=O)[C@H](CC(C)C)NC(=O)[C@H](CCCNC(=N)N)NC(=O)[C@@H]1CCCN1C(=O)[C@H](CCCNC(=N)N)NC(=O)[C@H](CCC(N)=O)NC(=O)[C@H](CCCNC(=N)N)NC(=O)[C@H](CCCNC(=N)N)NC(=O)[C@H](Cc1ccccc1)NC(=O)[C@@H](N)CCCCNC(=O)CCC(F)(F)C(F)(F)C(F)(F)C(F)(F)C(F)(F)C(F)(F)C(F)(F)C(F)(F)F)C(=O)N1CCC[C@H]1C(=O)N[C@@H](Cc1ccccc1)C(=O)O [JFM V-0220B]	0.2 nM	–	–	0.16 ± 0.01 nM	1 ± 0.4 nM	–
CCCC[C@H](NC(=O)[C@@H]1CCCN1C(=O)[C@@H](C)NC(=O)[C@H](CCCCN)NC(=O)C(C)(C)NC(=O)[C@H](CO)NC(=O)[C@@H](CC(C)C)NC(=O)[C@H](CCCNC(=N)N)NC(=O)[C@@H]1CCCN1C(=O)[C@H](CCCNC(=N)N)NC(=O)[C@@H](CCC(N)=O)NC(=O)[C@H](CCCNC(=N)N)NC(=O)[C@H](CCCNC(=N)N)NC(=O)[C@H](Cc1ccccc1)NC(=O)[C@H](CCCCN)NC(C)=O)C(=O)N1CCC[C@H]1C(=O)N[C@@H](Cc1ccc(Br)cc1)C(=O)O [P95, N-Acetyl-Lys-Phe-Arg-Arg-D-Gln-Arg-Pro-Arg-D-Leu-Ser-Aib-Lys-D-Ala-Pro-Nle-Pro-(4-Br)Phe] (HELM PEPTIDE1{[ac].K.F.R.R.[dQ].R.P.R.[dL].S.[Aib].K.[dA].P.[Nle].P.[O=C(O)[C@H](Cc1ccc(Br)cc1)N[*:1]]}$$$$V2.0; C-terminus assumed)	0.03 nM	–	–	–	–	affinity improved as compared to K17F by a factor (rat apelin receptor-EGFP [1]): 10; IC50 (rat apelin receptor-EGFP [1]; Table 1): 0.03 ± 0.02 nM; IC50 (rat apelin receptor-EGFP [2]; Table 1, read-out: cAMP production IC50): 0.34 ± 0.36 nM
CCCC[C@H](NC(=O)[C@@H]1CCCN1C(=O)CNC(=O)[C@H](CCCCN)NC(=O)[C@H](Cc1c[nH]cn1)NC(=O)[C@H](CO)NC(=O)[C@H](CC(C)C)NC(=O)[C@H](CCCNC(=N)N)NC(=O)[C@@H]1CCCN1C(=O)[C@H](CCCNC(=N)N)NC(=O)[C@@H]1CCC(=O)N1)C(=O)N1CCC[C@H]1C(=O)N[C@@H](Cc1ccccc1)C(=O)O [pE13F(Nle^11)]	–	–	potent inducers of apelin receptor internalization	–	–	–
CSCC[C@H](NC(=O)[C@@H]1CCCN1C(=O)CNC(=O)[C@H](CCCCN)NC(=O)[C@H](Cc1c[nH]cn1)NC(=O)[C@H](CO)NC(=O)[C@H](CC(C)C)NC(=O)[C@H](CCCNC(=N)N)NC(=O)[C@@H]1CCCN1C(=O)[C@H](CCCNC(=N)N)NC(=O)[C@@H]1CCC(=O)N1)C(=O)N1CCC[C@H]1C(=O)N[C@@H](Cc1ccccc1)C(=O)O [pE13F, reference compound]	–	–	–	–	–	maximal relaxant effect [4]: 62±6%; potency (pD2) of relaxation [4]: 8.00±0.59

Continued, in another order:

Ki (rat apelin receptor-EGFP [1]; [5])	IC50 (rat apelin receptor-EGFP [2]; [6])	SMILES	induction of apelin receptor internalization (rat apelin receptor-EGFP [3])	Ki (rat apelin receptor-EGFP [1]; [7])	IC50 (rat apelin receptor-EGFP [2]; [8])	other results
0.06 ± 0.02 nM	0.1 ± 0.05 nM	CSCC[C@H](NC(=O)[C@@H]1CCCN1C(=O)CNC(=O)[C@H](CCCCN)NC(=O)[C@H](Cc1c[nH]cn1)NC(=O)[C@H](CO)NC(=O)[C@H](CC(C)C)NC(=O)[C@H](CCCNC(=N)N)NC(=O)[C@@H]1CCCN1C(=O)[C@H](CCCNC(=N)N)NC(=O)[C@@H]1CCC(=O)N1)C(=O)N1CCC[C@H]1C(=O)N[C@@H](Cc1ccc(Br)cc1)C(=O)O [pE13(4Br-Phe^13)]	potent inducers of apelin receptor internalization	–	–	–
2.6 ± 2.3 nM	1.2 ± 0.6 nM	CSCC[C@H](NC(=O)[C@@H]1CCCN1C(=O)CNC(=O)[C@H](CCCCN)NC(=O)C(C)(C)NC(=O)[C@H](CO)NC(=O)[C@H](CC(C)C)NC(=O)[C@H](CCCNC(=N)N)NC(=O)[C@@H]1CCCN1C(=O)[C@H](CCCNC(=N)N)NC(=O)[C@@H]1CCC(=O)N1)C(=O)N1CCC[C@H]1C(=O)N[C@@H](Cc1ccccc1)C(=O)O [pE13F(Aib^7)] (HELM PEPTIDE1{[Glp].R.P.R.L.S.[Aib].K.G.P.M.P.F}$$$$V2.0; C-terminus assumed)	potent inducers of apelin receptor internalization	–	–	–
4.3 ± 1.8 nM	43 ± 12 nM	CSCC[C@H](NC(=O)[C@@H]1CCCN1C(=O)[C@@H](C)NC(=O)[C@H](CCCCN)NC(=O)[C@H](Cc1c[nH]cn1)NC(=O)[C@H](CO)NC(=O)[C@H](CC(C)C)NC(=O)[C@H](CCCNC(=N)N)NC(=O)[C@@H]1CCCN1C(=O)[C@H](CCCNC(=N)N)NC(=O)[C@@H]1CCC(=O)N1)C(=O)N1CCC[C@H]1C(=O)N[C@@H](Cc1ccccc1)C(=O)O [pE13F(D-Ala^9)] (HELM PEPTIDE1{[Glp].R.P.R.L.S.H.K.[dA].P.M.P.F}$$$$V2.0; C-terminus assumed)	potent inducers of apelin receptor internalization	–	–	–

From patent publication US20210206817A1, “Metabolically Stable Apelin Analogs in the Treatment of Disease Mediated by the Apelin Receptor” (priority 2014, published 2021)
